Measurements reported in patent publication US20140024662A1, “COMPOUNDS, SCREENS, AND METHODS OF TREATMENT” (Shanghai Institute of Organic Chemistry, priority 2006, published 2014).
Read-outs that look alike come from different tables or passages of the source.

System: FADD-deficient Jurkat cells
Assay: necroptosis assay: FADD-deficient Jurkat cells treated with TNFα, cell viability
Type: cell-based, human
Settings: for EC50: effective concentration for half-maximum response, inhibition of necroptosis in FADD-deficient Jurkat cells treated with TNFα; for Max Prot: max viability obtained in the presence of a compound; for Max Prot / activity in the necroptosis assay, in words: FADD-deficient Jurkat cells treated with TNFα; call rule not given here
Text: Herein we describe the structure activity analysis of Nec-5 analogs.

SMILES | EC50 | EC50 (read-out: EC50) [µM] | Max Prot [%] | activity in the necroptosis assay, in words
CCCCCSc1nc2sc3c(c2c(=O)n1-c1ccc(OC)cc1)CCC3 [Compound 96] | inactive | – | – | –
C=CCSc1nc2sc3c(c2c(=O)n1-c1ccc(OC)cc1)CCC3 [Compound 97] | inactive | – | – | –
C#CCSc1nc2sc3c(c2c(=O)n1-c1ccc(OC)cc1)CCC3 [Compound 98] | – | 2.49 | 63.4 | –
COc1ccc(-n2c(SCc3ccccc3)nc3sc4c(c3c2=O)CCC4)cc1 [Compound 99] | inactive | – | – | –
COc1ccc(-n2c(SCc3ccc([N+](=O)[O-])cc3)nc3sc4c(c3c2=O)CCC4)cc1 [Compound 100] | inactive | – | – | –
COc1ccc(-n2c(SCC(C)=O)nc3sc4c(c3c2=O)CCC4)cc1 [Compound 101] | inactive | – | – | –
COc1ccc(-n2c(SC[N+](=O)[O-])nc3sc4c(c3c2=O)CCC4)cc1 [Compound 102] | inactive | – | – | –
COc1ccc(-n2c(SCCO)nc3sc4c(c3c2=O)CCC4)cc1 [Compound 103] | – | 7.14 | 100 | –
C#CCSc1nc2sccc2c(=O)n1-c1ccc(OC)cc1 [Compound 104] | inactive | – | – | –
C#CCSc1nc2scc(C)c2c(=O)n1-c1ccc(OC)cc1 [Compound 105] | inactive | – | – | –
C#CCSc1nc2sc(C)c(C)c2c(=O)n1-c1ccc(OC)cc1 [Compound 106] | – | 4.86 | 90.3 | possess some activity
C#CCSc1nc2sc(CC)c(C)c2c(=O)n1-c1ccc(OC)cc1 [Compound 107] | inactive | – | – | –
C#CCSc1nc2sc(CCC)c(C)c2c(=O)n1-c1ccc(OC)cc1 [Compound 108] | inactive | – | – | –
C#CCSc1nc2sc3c(c2c(=O)n1-c1ccc(OC)cc1)CCCCC3 [Compound 109] | inactive | – | – | –
CCSc1nc2sc(C)c(C)c2c(=O)n1-c1ccc(OC)cc1 [Compound 110] | inactive | – | – | inactive
CCSc1nc2sc(CC)c(C)c2c(=O)n1-c1ccc(OC)cc1 [Compound 111] | inactive | – | – | –

SMILES | EC50 | EC50 (read-out: EC50) [µM] | Max Prot [%] | activity in the necroptosis assay, in words
CCSc1nc2sc3c(c2c(=O)n1-c1ccc(OC)cc1)CCCCC3 [Compound 112] | inactive | – | – | –
COc1ccc(-n2c(SCCC#N)nc3sc(C)c(C)c3c2=O)cc1 [Compound 113] | inactive | – | – | –
COc1ccc(-n2c(SCCO)nc3sc(C)c(C)c3c2=O)cc1 [Compound 114] | – | 7.26 | 78 | possess some activity
CCc1sc2nc(SCCO)n(-c3ccc(OC)cc3)c(=O)c2c1C [Compound 115] | inactive | – | – | –
CCCc1sc2nc(SCCO)n(-c3ccc(OC)cc3)c(=O)c2c1C [Compound 116] | inactive | – | – | –
CCCc1sc2nc(SCC)n(-c3ccc(OC)cc3)c(=O)c2c1C [Compound 117] | inactive | – | – | –
COc1ccc(-n2c(SCC(=O)O)nc3sc(C)c(C)c3c2=O)cc1 [Compound 118] | inactive | – | – | –
Cc1sc2nc(SCC#N)n(-c3ccc(F)cc3)c(=O)c2c1C [Compound 119] | – | 4.43 | 87.6 | –
CCc1sc2nc(SCC#N)n(-c3ccc(F)cc3)c(=O)c2c1C [Compound 120] | inactive | – | – | –
N#CCSc1nc2sc3c(c2c(=O)n1-c1ccc(F)cc1)CCC3 [Compound 121] | – | 0.89 | 88.7 | –
N#CCSc1nc2sc3c(c2c(=O)n1-c1ccc(F)cc1)CCCCC3 [Compound 122] | inactive | – | – | completely lacked activity
CSc1nc2sc(C)c(C)c2c(=O)n1-c1ccc(F)cc1 [Compound 123] | – | 2.6 | 69.2 | –
CCc1sc2nc(SC)n(-c3ccc(F)cc3)c(=O)c2c1C [Compound 124] | inactive | – | – | –
CSc1nc2sc3c(c2c(=O)n1-c1ccc(F)cc1)CCC3 [Compound 125] | – | 3 | 95 | –
Cc1sc2nc(SCC#N)n(-c3ccc4c(c3)OCO4)c(=O)c2c1C [Compound 127] | – | 1.65 | 100 | –
